{"source": "patent US11414488B2", "about": "“Methods for treating cancer” (BicycleRD Limited, priority 2019, dated 2022)", "key": {"[1]": {"system": "orthotopic E0771 murine mammary carcinoma", "settings": "for anti-tumor activity (in words): BT17BDC-18 at 6.2 mg/kg or 4.8 mg/kg, anti-mPD-1 10 mg/kg, paclitaxel 15 mg/kg", "text": "The purpose of this study was to evaluate the anti-cancer activity of BT17BDC-18 alone and in combination with anti-mPD-1 against established orthotopic E0771 murine mammary carcinoma in female C57BL/6 mice.\nAll mice were sorted into study groups based on caliper estimation of tumor burden. The mice were distributed to ensure that the mean tumor burden for all groups was within 10% of the overall mean tumor burden for the study population.\nAll animals weighed at least 16.6 g at the initiation of therapy. […] A tumor burden of 2000 mm^3, was chosen for evaluation of efficacy by time to progression (time to euthanasia/death).\nTreatment-related weight change—This is a group endpoint calculated from the group mean body weights. It is calculated differently for specific circumstances as follows: • If (at any point between the first day of treatment and two weeks after the final treatment) the mean group body weight decreases by more than 2%, the maximum weight loss is reported, even if body weight eventually rebounded during treatment to a net weight gain. […] To assess the contribution of test agents to weight loss, Net Treatment Related Weight Loss may be used. […] When this occurs, net weight loss is calculated by normalizing for tumor burden. We do this by constructing a plot of control group mean tumor burden vs control group mean weight loss, using all of the weight data available for the control group. […] This value is then subtracted from the mean weight loss in the treated group to generate the net weight loss for the treated group on that day. The calculated net weight loss is then used to estimate the tolerance to the drug.\nTime to Progression (TP)—Time to progression is a surrogate for lifespan, time on study, or lifespan. It is used for studies that involve IACUC mandated euthanasia of animals for excessive tumor burdens (even if the animals otherwise appear normal). The mandated tumor burden limit is tumor model dependent. TP data is analyzed by Kaplan Meier methods just as traditional life span data. The Time to Progression for an individual animal is the number of days between initiation of treatment and the death or required euthanasia of that animal. […] This puts all animals on the same footing, and removes the impact of possibly delayed euthanasia (which may occur for sampling, or weekends and holidays). Animals euthanized for scheduled sampling or other causes unrelated to disease progression or therapy are excluded from this calculation. The median Time to Progression for a group is used to calculate the % Increase in Time to Progression (% ITP).\n% Increase in Time to Progression (% ITP)—% ITP is a group endpoint.\nComplete Regression (CR)—An animal is credited a complete regression if its tumor burden is reduced to an immeasurable volume at any point after the first treatment. Our convention is to record any tumor measurement less than 5 mm as a “0.” The CR must be maintained for at least 2 consecutive measurements. This is in keeping with the convention of the NCI and reflects the inherent and unacceptably high mechanical error in such measurements in addition to the uncertain biology of what is measured at those small sizes."}, "[2]": {"experiment": "Tolerability and deaths in E0771 study (Example 3)", "assay_type": "in vivo, Mouse", "settings": "single agent paclitaxel 15 mg/kg; considered non-specific deaths, treatment not completely ruled out", "from_the_text": "Animals euthanized during the same period for other causes (sampling, accidental trauma, etc.) are excluded from this calculation. […] (Group toxicity parameter)"}, "[3]": {"settings": "BT17BDC-18 6.2 mg/kg IV Q7Dx4, anti-mPD-1 10 mg/kg IP, paclitaxel 15 mg/kg IV Q7Dx4, alone or combined"}}, "note": "Like-named read-outs stand apart in the source and are kept apart here.", "data": [{"compound": "CC(=O)O[C@H]1C(=O)[C@@]2(C)[C@H]([C@H](OC(=O)c3ccccc3)[C@]3(O)C[C@H](OC(=O)[C@H](O)[C@@H](NC(=O)c4ccccc4)c4ccccc4)C(C)=C1C3(C)C)[C@]1(OC(C)=O)CO[C@@H]1C[C@@H]2O", "note": "[Paclitaxel]", "values": [{"measurement": "% increase in time to progression", "setting": "[1]; [3]", "value": 17.9, "unit": "%"}, {"measurement": "Day 36 median ΔT/ΔC", "setting": "[1]; [3]", "value": 94, "unit": "%"}, {"measurement": "increase in time to progression", "setting": "[1]; [3]", "value": 4.0, "unit": "days"}, {"measurement": "anti-tumor activity (in words)", "setting": "[1]", "value": "Poor response"}, {"measurement": "anti-tumor activity (in words)", "setting": "[1]; listed as paclitaxel", "value": "mildly active"}, {"measurement": "deaths in group", "setting": "[2]", "value": "two"}]}]}
